Measured values: patent US8252796B2, “1-butyl-2-hydroxyaralkyl piperazine derivatives and the uses as anti-depression medicine thereof” (CSPC Zhonggi Pharmaceutical Technology (Shijiazhuang) Co. …, priority 2008, dated 2012)

Tests used:
[1] = molecular target: T1, 5-HT reuptake, Rat brain synaptosome (Rattus norvegicus, UniProt P31652); test: 5-HT reuptake, optical isomers (Example 37); format: biochemical; details: 15 min/37° C.
T1 construct: Rat brain; from tissue; host or cells: rat brain synaptosomes
Description: (§1) 3. Experiment Results (IC50 Value was Obtained by Nonlinear Regression Analysis of Inhibition Rate/Concentration Response Curve)

[2] = molecular target: T2, DA reuptake, Rat striatum synaptosome (Rattus norvegicus, UniProt P23977); test: DA reuptake, optical isomers (Example 37); format: biochemical; details: 15 min/37° C.
T2 construct: Rat striatum; from tissue; host or cells: rat striatum synaptosomes
Description: as §1

[3] = molecular target: T3, NE reuptake, Rat hypothalamus synaptosome (Rattus norvegicus, UniProt Q9WTR4); test: NE reuptake, optical isomers (Example 37); format: biochemical; details: 20 min/37° C.
T3 construct: hypothalamus; from tissue; host or cells: rat hypothalamus synaptosomes
Description: as §1

[4] = molecular target: T4, reuptake of DA by brain synaptosomes (striatum) (Rattus norvegicus, UniProt P23977); test: Inhibition of [3H]DA reuptake by rat brain synaptosomes, single concentration (Example 35); format: biochemical; details: test substance 10 μmol/L; inhibitory rate of 0.1 mM 6-hydroxy DA taken as 100%
T4 construct: from tissue; host or cells: rat striatum synaptosomes
Description: (§2) Studies on the reuptake of monoamine neurotransmitters by brain synaptosomes was performed, which is a currently important mean adopted in the worldwide in pharmacological studies of central nervous. This method can not only be used to study the action mechanism of a drug, but also be used for screening new drugs acting by this mechanism.
(§3) Male SD rats were sacrificed by cervical dislocation and then the brains thereof were taken out rapidly by decollation and placed on ice. Related rain tissues (for [^3H]5-HT and [^3H]NA reuptake experiment, prefrontal cortex was taken; for [^3H]DA reuptake experiment, striatum was taken) were separated and weighed. 10 times (V/W) of 0.32 mol/L ice-cold sucrose solution was added and was homogenized electrically with glass-teflon. The homogenate was centrifugated at 4° C. at 1000 g×10 min. Then the supernatant was taken and centrifugated at 4° C. at 17000 g×20 min. The precipitation was suspended in 30 volume of KRH Buffer (125 mM NaCl, 4.8 mM KCl, 1.2 mM CaCl2, 1.2 mM MgSO4, 1.0 mM KH2PO4, 22 mM NaHCO3, 25 mM HEPES, 10 mM Glucose, 10 μM Pargyline, 0.2 mg/ml Ascorbic Acid) and then was preserved in an ice bath for use. (for NA reuptake experiment, the cortex needed was suspended in 20 volume of KRH Buffer)
(§4) Stock solution of the test substance was thawed immediately before use and diluted with KBH Buffer to 100 μmol/L, 50 μl thereof was added in 500 μl of total reaction system, and the final concentration was 10 μmol/L. Then 50 μl suspended synaptic prepared above was added and mixed evenly, incubated in water bath for 30 min at 37° C. Then […] [^3H] 5-HT (50 nmol/L [^3H]DA or […] [^3H]NA) was added. After incubated at 37° C. for 10 min, the reaction system was immediately taken out and the reaction was stopped by adding 2 ml of ice-cold 150 mmol/L Tris-HCl buffer solution. The samples were collected on the circular fiberglass membrane by vacuum filtration, and the membrane was washed 3 times with 3 ml of ice-cold Tris-HCl buffer solution. The filtration membrane was removed, baked for 15 min in a far-infrared oven and placed into an EP tube. 1.5 ml scintillation fluid was added overnight and was tested by liquid scintillation counter. For the solvent control total binding tube and the non-specific binding tube, no test substance was added; for the total binding tube, 50 μl solvent was added.

mice = test: Oral administration acute toxicity in mice; details: for mortality (%) / number of died animals: 14 days
[5] = molecular target: T5, reuptake of [3H]NA by prefrontal cortex synaptosomes (Rattus norvegicus, UniProt Q9WTR4); test: IC50 for inhibiting reuptake of [3H]NA by brain synaptosomes (Example 36); format: biochemical; details: mean, n = 3~4
T5 construct: from tissue; host or cells: rat prefrontal cortex synaptosomes
Description: as §3
(§5) 1. Preparation of Rat Brain Synaptosomes (the Same as Example 35)
(§6) The compounds were used for the studies on inhibition effect (IC50) on reuptake of [^3H]5-HT/NA/DA. At least 5 concentrations each time were settled for each test compound. Each concentration was determined by the average of double twin tubes and the test was repeated for more than 3 times. A series of concentrations of the compounds were prepared by gradient dilution before use. 50 μl thereof was added in total reaction system. Then 50 μl suspended synaptic membrane was added and mixed evenly, incubated in water bath at 37° C. for 30 min. Then 10 nmol/L [^3H] 5-HT (or 50 nmol/L [^3H]DA or 40 nmol/L [^3H]NA) was added and incubated in water bath at 37° C. for 10 min (for [^3H]NA, incubated for 5 min). For the [^3H]5-HT reuptake experiment, 50 μL of fluoxetine (100 μmol/L) was added to the non-specific binding tube; for the [^3H]DA reuptake experiment, 50 μL of cocaine (600 μmol/L) was added to the non-specific binding tube; for the [^3H]NA reuptake experiment, 50 μL of desipramine (100 μmol/L) was added to the non-specific binding tube; for the solvent control, solvent was added to the total binding tube, but no test compound added.
(§7) Sigmoidal curve fitting was performed for the data obtained from all of the test drugs by Origin 6.1, and the IC50 value was calculated.

ICR mice = test: Mice Forced Swimming Test (in vivo antidepression activity); details: for swimming test: immobility time: n = 12, mean±SD
[6] = molecular target: T6, reuptake of [3H]DA by striatum synaptosomes (Rattus norvegicus, UniProt P23977); test: IC50 for inhibiting reuptake of [3H]DA by brain synaptosomes (Example 36); format: biochemical; details: mean, n = 3~4
T6 construct: from tissue; host or cells: rat striatum synaptosomes
Description: as §3, §5, §6, §7

[7] = molecular target: T7, reuptake of [3H]5-HT by prefrontal cortex synaptosomes (Rattus norvegicus, UniProt P31652); test: IC50 for inhibiting reuptake of [3H]5-HT by brain synaptosomes (Example 36); format: biochemical; details: mean, n = 3~4
T7 construct: from tissue; host or cells: rat prefrontal cortex synaptosomes
Description: as §3, with “The precipitation was suspended in 30 volume of KRH Buffer (125 mM NaCl, 4.8 mM KCl, 1.2 mM CaCl2, 1.2 mM MgSO4, 1.0 mM KH2PO4, 22 mM NaHCO3, 25 mM HEPES, 10 mM Glucose, 10 μM Pargyline, 0.2 mg/ml Ascorbic Acid) and then was preserved in an ice bath for use.” left out
as §6, §7

[8] = Pharmacokinetics and bioavailability, single i.v. and oral administration in SD rat; format: in vivo; details: for bioavailability: oral 50 mg/kg vs i.v. 10 mg/kg
Description: To study the pharmacokinetics parameters and the bioavailability of VIII-9, VIII-10 and SIPI5286 when single i.v. and oral administration in SD rat
Eighteen male rats were randomized into 6 groups and were administrated with the three compounds via i.v. and oral route, respectively. The dosage was 10 mg/kg (IV) and 50 mg/kg (PO). The test substance was dissolved in the solution of 5% DMSO/95% HP-β-CD aqueous solution (30%), and were administrated to the animal via i.v. and oral route. Blood plasma was collected at a serial of time points after i.v. and oral administration, and the blood drug concentrations were determined by LC/MS/MS. Then the pharmacokinetics parameters and the bioavailability were calculated based on the blood drug concentrations.

[9] = molecular target: T8, reuptake of 5-HT by brain synaptosomes (prefrontal cortex) (Rattus norvegicus, UniProt P31652); test: Inhibition of [3H]5-HT reuptake by rat brain synaptosomes, single concentration (Example 35); format: biochemical; details: test substance 10 μmol/L; inhibitory rate of 0.1 mM venlafaxine taken as 100%
T8 construct: from tissue; host or cells: rat prefrontal cortex synaptosomes
Description: as §2, §3, §4

[10] = molecular target: T9, reuptake of NA by brain synaptosomes (prefrontal cortex) (Rattus norvegicus, UniProt Q9WTR4); test: Inhibition of [3H]NA reuptake by rat brain synaptosomes, single concentration (Example 35); format: biochemical; details: test substance 10 μmol/L; inhibitory rate of 0.1 mM venlafaxine taken as 100%
T9 construct: from tissue; host or cells: rat prefrontal cortex synaptosomes
Description: as §2, §3, §4

[11] = one week oral administration, 10.4 mg/kg
[12] = one week oral administration, 17.3 mg/kg
[13] = one week oral administration, 28.8 mg/kg
[14] = one week oral administration, 48 mg/kg
[15] = single oral administration, 10.4 mg/kg
[16] = single oral administration, 17.3 mg/kg
[17] = single oral administration, 28.8 mg/kg
[18] = single oral administration, 48 mg/kg

T3 sequence (Q9WTR4 1-597): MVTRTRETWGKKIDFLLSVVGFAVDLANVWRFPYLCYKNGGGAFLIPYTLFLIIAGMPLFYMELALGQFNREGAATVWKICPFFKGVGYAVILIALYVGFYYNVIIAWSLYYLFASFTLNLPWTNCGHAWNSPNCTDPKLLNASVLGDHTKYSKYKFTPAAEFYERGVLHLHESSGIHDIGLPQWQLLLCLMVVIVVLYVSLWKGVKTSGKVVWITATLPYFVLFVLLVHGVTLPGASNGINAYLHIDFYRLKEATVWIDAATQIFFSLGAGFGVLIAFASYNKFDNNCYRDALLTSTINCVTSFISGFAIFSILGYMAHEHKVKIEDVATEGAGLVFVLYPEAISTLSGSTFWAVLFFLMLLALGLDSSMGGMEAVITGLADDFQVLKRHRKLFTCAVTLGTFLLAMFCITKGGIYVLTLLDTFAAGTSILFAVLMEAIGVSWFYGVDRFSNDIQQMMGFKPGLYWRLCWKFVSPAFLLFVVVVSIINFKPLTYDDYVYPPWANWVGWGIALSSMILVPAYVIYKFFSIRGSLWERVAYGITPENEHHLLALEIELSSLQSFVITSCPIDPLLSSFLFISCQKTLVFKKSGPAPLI
T1 sequence (P31652 whole entry): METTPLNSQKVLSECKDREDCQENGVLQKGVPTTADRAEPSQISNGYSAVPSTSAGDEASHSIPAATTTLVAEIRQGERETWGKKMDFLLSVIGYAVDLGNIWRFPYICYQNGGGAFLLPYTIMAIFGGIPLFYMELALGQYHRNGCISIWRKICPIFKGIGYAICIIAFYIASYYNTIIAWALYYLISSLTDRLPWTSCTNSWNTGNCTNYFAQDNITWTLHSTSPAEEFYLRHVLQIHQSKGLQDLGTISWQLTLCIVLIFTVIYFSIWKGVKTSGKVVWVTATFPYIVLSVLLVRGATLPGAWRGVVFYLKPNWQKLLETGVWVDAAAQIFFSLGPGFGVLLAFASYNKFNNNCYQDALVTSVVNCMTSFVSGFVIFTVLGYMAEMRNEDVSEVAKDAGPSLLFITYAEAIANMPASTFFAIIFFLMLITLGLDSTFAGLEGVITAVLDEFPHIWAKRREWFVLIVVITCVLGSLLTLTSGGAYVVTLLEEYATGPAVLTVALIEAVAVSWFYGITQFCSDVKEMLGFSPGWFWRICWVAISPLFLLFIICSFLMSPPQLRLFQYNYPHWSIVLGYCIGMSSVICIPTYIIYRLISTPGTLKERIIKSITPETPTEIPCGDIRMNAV
T2 sequence (P23977 whole entry): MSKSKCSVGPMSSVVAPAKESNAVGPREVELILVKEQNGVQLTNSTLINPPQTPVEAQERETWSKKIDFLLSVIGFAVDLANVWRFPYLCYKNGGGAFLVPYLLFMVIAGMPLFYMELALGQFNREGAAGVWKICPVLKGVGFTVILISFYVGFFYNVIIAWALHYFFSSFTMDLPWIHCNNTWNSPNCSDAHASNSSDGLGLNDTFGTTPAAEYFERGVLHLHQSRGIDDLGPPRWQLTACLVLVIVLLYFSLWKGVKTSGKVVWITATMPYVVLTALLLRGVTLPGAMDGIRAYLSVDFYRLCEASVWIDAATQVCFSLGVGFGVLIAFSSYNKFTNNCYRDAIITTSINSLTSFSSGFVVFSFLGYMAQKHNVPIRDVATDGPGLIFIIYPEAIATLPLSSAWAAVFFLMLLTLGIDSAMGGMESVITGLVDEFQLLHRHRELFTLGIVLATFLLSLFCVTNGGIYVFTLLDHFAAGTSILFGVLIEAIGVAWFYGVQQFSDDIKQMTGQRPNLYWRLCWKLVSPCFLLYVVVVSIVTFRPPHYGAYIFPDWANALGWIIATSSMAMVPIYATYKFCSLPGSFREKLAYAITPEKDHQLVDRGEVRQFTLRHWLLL
T9 sequence (Q9WTR4 1-597): as the sequence (Q9WTR4 1-597) above
T5 sequence (Q9WTR4 1-597): as above
T7 sequence (P31652 whole entry): as the sequence (P31652 whole entry) above
T8 sequence (P31652 whole entry): as above
T4 sequence (P23977 whole entry): as the sequence (P23977 whole entry) above
T6 sequence (P23977 whole entry): as above

IC50 [1] [nM]	IC50 [2] [nM]	IC50 [3] [nM]	Compound	inhibition on the reuptake of DA(%) [4] [%]	mortality (%) (mice; oral 507.8 mg/kg)	number of died animals (mice; oral 507.8 mg/kg)	mortality (%) (mice; oral 781.2 mg/kg)	number of died animals (mice; oral 781.2 mg/kg)	mortality (%) (mice; oral 1201.9 mg/kg)	number of died animals (mice; oral 1201.9 mg/kg)	mortality (%) (mice; oral 1849.1 mg/kg)	number of died animals (mice; oral 1849.1 mg/kg)	mortality (%) (mice; oral 2844.7 mg/kg)	number of died animals (mice; oral 2844.7 mg/kg)	IC50 [5] [nM]	swimming test: immobility time (ICR mice; [11]) [s]	swimming test: immobility time (ICR mice; [12]) [s]	swimming test: immobility time (ICR mice; [13]) [s]	swimming test: immobility time (ICR mice; [14]) [s]	ED50 swimming test (ICR mice; single oral administration) [mg/kg]	further results
830	670	140	CCCCC(C(O)c1ccc2c(Cl)c(OC)ccc2c1)N1CCN(Cc2ccccc2)CC1 [IX-25, (1R,2S)-N^1-benzyl-N^4-[1-butyl-2-(5′-chloro-6′-methoxyl-2′-naphthyl)hydroxyethyl]piperazine]																		
1200	1100	1200	CCCCC(C(O)c1ccc2c(Cl)c(OC)ccc2c1)N1CCN(Cc2ccccc2)CC1 [IX-26, (1R,2R)-N^1-benzyl-N^4-[1-butyl-2-(5′-chloro-6′-methoxyl-2′-naphthyl)hydroxyethyl]piperazine]																		
			CCCC[C@H]([C@@H](O)c1ccc2c(Cl)c(OC)ccc2c1)N1CCN(Cc2ccccc2)CC1 (racemic) [VIII-9, (1SR,2RS)-N^1-benzyl-N^4-[1-butyl-2-(5′-chloro-6′-methoxyl-2′-naphthyl)hydroxyethyl]piperazine]	117	0	0	0	0	0	0	0	0	0	0	2.8	93.4 ± 26.71	82.1 ± 44.06	87.2 ± 40.07	91.5 ± 58.14	34.3	swimming test: immobility time (ICR mice; [15]): 74.3 ± 46.63 s; swimming test: immobility time (ICR mice; [16]): 119.4 ± 28.02 s; swimming test: immobility time (ICR mice; [17]): 77.4 ± 53.81 s; swimming test: immobility time (ICR mice; [18]): 104.3 ± 75.81 s; IC50 [6]: 2.1 nM; IC50 [7]: 73.3 nM; AUC (0-t) ([8]; i.v. 10 mg/kg): 4060.59 ng·h/mL; half life (T½) ([8]; i.v. 10 mg/kg): 7.83 h; Cmax ([8]; i.v. 10 mg/kg, (5 min)): 2640.94 ng/mL; AUC (0-t) ([8]; oral 50 mg/kg): 3345.73 ng·h/mL; Cmax ([8]; oral 50 mg/kg): 352.27 ng/mL; Tmax ([8]; oral 50 mg/kg): 1.50 h; half life (T½) ([8]; oral 50 mg/kg): 5.89 h; bioavailability [8]: 16.32%; Inhibition on the reuptake of 5-HT(%) [9]: 125%; inhibition on the reuptake of NA(%) [10]: 155.2%
3100	1100	1400	CCCCC(C(O)c1ccc2c(Cl)c(OC)ccc2c1)N1CCN(Cc2ccccc2)CC1 (single isomer, unassigned) [IX-24]																		
			CCCC[C@H]([C@H](O)c1ccc2c(Cl)c(OC)ccc2c1)N1CCN(Cc2ccccc2)CC1 (racemic) [VIII-10, (1SR,2SR)-N^1-benzyl-N^4-[1-butyl-2-(5′-chloro-6′-methoxyl-2′-naphthyl)hydroxyethyl]piperazine]	133	0.00	0	33.3	2	66.7	4	83.3	5	100	6	4730	77.6 ± 24.69	78.2 ± 25.63	51.9 ± 51.23	68.3 ± 34.01	11.8	LD50 (95% confidential limit) (mice; oral, male & female, Bliss method): 1048.5 (751.33˜1433.7) mg/kg; swimming test: immobility time (ICR mice; [15]): 81.8 ± 39.34 s; swimming test: immobility time (ICR mice; [16]): 43.4 ± 35.41 s; swimming test: immobility time (ICR mice; [17]): 40.8 ± 40.24 s; swimming test: immobility time (ICR mice; [18]): 64.4 ± 43.01 s; IC50 [6]: 165 nM; IC50 [7]: 272 nM; AUC (0-t) ([8]; i.v. 10 mg/kg): 2932.05 ng·h/mL; half life (T½) ([8]; i.v. 10 mg/kg): 9.06 h; Cmax ([8]; i.v. 10 mg/kg, (5 min)): 2998.49 ng/mL; AUC (0-t) ([8]; oral 50 mg/kg): 5552.24 ng·h/mL; Cmax ([8]; oral 50 mg/kg): 727.20 ng/mL; Tmax ([8]; oral 50 mg/kg): 1.67 h; half life (T½) ([8]; oral 50 mg/kg): 16.41 h; bioavailability [8]: 63.78%; Inhibition on the reuptake of 5-HT(%) [9]: 136%; inhibition on the reuptake of NA(%) [10]: 145%
1900	1000	2100	CCCCC(C(O)c1ccc2c(Cl)c(OC)ccc2c1)N1CCN(Cc2ccccc2)CC1 (single isomer, unassigned) [IX-23]																		
